Reference: patent US9426996B2, “Use of benzoxaboroles as volatile antimicrobial agents on meats, plants, or plant parts” (AgroFresh Inc., priority 2013, dated 2016)

Assays:
[1] = test system: Botrytis cinerea; test: in vivo dose by time volatile bioassay using strawberry; conditions: for Incidence (%) / Severity (0 to 3): strawberries
Method: In order to assess the in vivo dose by time activity of volatile antimicrobial compounds, a volatile bioassay is developed using strawberry. Two fruit are placed inside a 240 mL jar, with the calyx facing downwards. […] Whatman filter paper (Cat. No. 1822-024) is placed inside duplicate jar lids. Compound A (benzoxaborole; FIG. 1) is diluted in acetone, and the appropriate amount of compound is added to the disks at two rates 0.008 or 0.125 mg. The acetone is permitted to evaporate for 5 minutes. The jars are capped with the lids containing the fungicide, and incubated with the volatile fungicide for 1, 3, 6, 24 or 72 hours. After incubation, lids containing the disk with Compound A are replaced with new lids without Compound A. All samples are maintained at 21° C. for 3 days, and then the lids are removed and maintained for an additional 48 hours, all at 90% relative humidity (R.H.). The fruit are evaluated for incidence and severity of disease and appearance of phytotoxicity.

[2] = test system: Botrytis cinerea; test: in vivo volatile bioassay using inoculated white carnations
Method: In order to assess the in vivo activity of volatile antimicrobial Compound A on controlling Botrytis cinerea on ornamental flowers, a volatile bioassay is developed using white carnations.
Five carnations are placed in an 800 mL jar containing 200 mL of a common commercial flower preservative. Five jars are then placed in a 117 L Rubbermaid storage box (Cat #2244). The petals are uniformly spray-inoculated with 5 mL of 1×10^5 spores/mL of Botrytis cinerea suspension. The tub is closed tightly. For treatment application, Compound A is dissolved in an aqueous 1,2-propylene glycol solution (3:1) and 5 mL of the solution is volatilized into the container using an ES-100-H SmartFog system (Reno, Nev.) through a ½″ side port that is sealed immediately after the application. The flowers are incubated for 3 days at 21° C. After storage, the flowers are evaluated for incidence based on presence of disease on flower petals relative to untreated control flowers for up to 8 days at 21° C., with results summarized in Table 12.

[3] = test system: Botrytis cinerea; test: white roses with natural inoculum, volatile treatment; assay type: in vivo; design: key to Severity (0-4): 0 = No disease; 1 = Browning and small lesions on the sepals or petals; 2 = Browning, petals covered with fungal spores; 3 = Browning, petals covered with fungal spores, some petal drop; 4 = Browning, petals covered with fungal spores, some flowers aborted
Method: A similar test like the one described above is also performed on white roses with natural inoculum. Five white roses are placed in an 800 mL jar containing 200 mL of a common commercial flower preservative.
Three jars are then placed in a 117 L Rubbermaid storage box (Cat #2244). Two small fans are place in opposite ends of the container to assist with the volatile distribution of compound A. The tub is closed tightly, and then Compound A is diluted in acetone, and then pipetted onto a 1.5 inch×1 inch cotton strip. The acetone is allowed to evaporate for five minutes. Compound A is then introduced to the containers by a sublimation device (copper tube heated to 200° C. with fan flow at 0.5 L/min) to achieve a final headspace concentration of 0.04, 0.2, 1 mg/L, through a ½″ side port that is sealed immediately after the application. Alternatively, Compound A is pipetted onto a 42.5 mm Whatman #1 filter disk (Cat. No. 1001-042), supported by a watch glass, where the acetone is allowed to evaporate for five minutes prior to sealing the container. The flowers are incubated for three days at 21° C. After treatment, flowers are evaluated for an additional two days for disease incidence and severity of the flower petals. Applying a treatment at 1 mg/L through sublimation results in 0% incidence. Rose petals after treatment with Compound A have no disease incidence, retained white color, and the roses had no petal drop.

[4] = test system: Alternaria alternata; test: combination treatment with 1-MCP on tomato; assay type: in vivo; conditions: tomatoes
Method: Each tomato fruit is wounded three times and inoculated with 1×10^6 spores/mL of Alternaria alternata and then placed in a 117 L Rubbermaid storage box (Cat #2244) with two small fans placed in opposite ends of the container. A 1000 ppb v/v 1-MCP treatment is applied (AgroFresh, Springhouse, Pa.) for 24 hours at 21° C. After completion of the 1-MCP treatment, the tomatoes are removed and placed in a 10.8-cup […] airtight container (Model #109842). […] The tomatoes are incubated for three days at 21° C., then evaluated for an additional three days at 21° C. for disease incidence and severity. Results listed in Table 29 show good activity against Alternaria alternata infection of tomato.

[5] = 0.04 mg/L, Applied through sublimation
[6] = 0.04 mg/L, Volatilized from Whatman Filter
[7] = 0.2 mg/L, Applied through sublimation
[8] = 0.2 mg/L, Volatilized from Whatman Filter
[9] = 1 mg/L, Applied through sublimation
[10] = 1 mg/L, Volatilized from Whatman Filter

OB1OCc2cc(F)ccc21 [Compound A]
Incidence (%) ([1]; 0.008 mg/disk, Time 3 h): 0% | Severity (0 to 3) ([1]; 0.008 mg/disk, Time 3 h): 0.0 | Incidence (%) ([1]; 0.008 mg/disk, Time 6 h): 33% | Severity (0 to 3) ([1]; 0.008 mg/disk, Time 6 h): 1.0 | Incidence (%) ([1]; 0.008 mg/disk, Time 24 h): 67% | Severity (0 to 3) ([1]; 0.008 mg/disk, Time 24 h): 2.3 | Incidence (%) ([1]; 0.008 mg/disk, Time 72 h): 33% | Severity (0 to 3) ([1]; 0.008 mg/disk, Time 72 h): 1.0 | Incidence (%) ([1]; 0.125 mg/disk, Time 1 h): 67% | Severity (0 to 3) ([1]; 0.125 mg/disk, Time 1 h): 2.3 | Incidence (%) ([1]; 0.125 mg/disk, Time 3 h): 33% | Severity (0 to 3) ([1]; 0.125 mg/disk, Time 3 h): 1.3 | Incidence (%) ([1]; 0.125 mg/disk, Time 6 h): 0% | Severity (0 to 3) ([1]; 0.125 mg/disk, Time 6 h): 0.0 | Incidence (%) ([1]; 0.125 mg/disk, Time 24 h): 0% | Severity (0 to 3) ([1]; 0.125 mg/disk, Time 24 h): 0.0 | Incidence (%) ([1]; 0.125 mg/disk, Time 72 h): 0% | Severity (0 to 3) ([1]; 0.125 mg/disk, Time 72 h): 0.0 | control of Botrytis cinerea ([1]; strawberry, 0.125 mg/disk, after 6 hour exposure): 100% | appearance of phytotoxicity ([1]; strawberry, 0.008 or 0.125 mg): no evidence of phytotoxicity | Disease incidence (%) on Petals ([2]; 0.04 mg/L, Day 0): 0% | Disease incidence (%) on Petals ([2]; 0.04 mg/L, Day 1): 0% | Disease incidence (%) on Petals ([2]; 0.04 mg/L, Day 2): 16% | Disease incidence (%) on Petals ([2]; 0.04 mg/L, Day 3): 40% | Disease incidence (%) on Petals ([2]; 0.04 mg/L, Day 8): 92% | Disease incidence (%) on Petals ([2]; 0.2 mg/L, Day 0): 0% | Disease incidence (%) on Petals ([2]; 0.2 mg/L, Day 1): 8% | Disease incidence (%) on Petals ([2]; 0.2 mg/L, Day 2): 20% | Disease incidence (%) on Petals ([2]; 0.2 mg/L, Day 3): 16% | Disease incidence (%) on Petals ([2]; 0.2 mg/L, Day 8): 36% | Disease incidence (%) on Petals ([2]; 1 mg/L, Day 0): 0% | Disease incidence (%) on Petals ([2]; 1 mg/L, Day 1): 0% | Disease incidence (%) on Petals ([2]; 1 mg/L, Day 2): 0% | Disease incidence (%) on Petals ([2]; 1 mg/L, Day 3): 4% | Disease incidence (%) on Petals ([2]; 1 mg/L, Day 8): 16% | Incidence (%) [3, 5]: 46.7% | Severity (0-4) [3, 5]: 1.7 | Incidence (%) [3, 6]: 46.7% | Severity (0-4) [3, 6]: 1.1 | Incidence (%) [3, 7]: 13.3% | Severity (0-4) [3, 7]: 0.5 | Incidence (%) [3, 8]: 66.7% | Severity (0-4) [3, 8]: 1.8 | Incidence (%) [3, 9]: 0% | Severity (0-4) [3, 9]: 0 | Incidence (%) [3, 10]: 53.3% | Severity (0-4) [3, 10]: 1.6 | Diameter of the rot (mm) ([4]; 0.4 mg/L): 3.8 mm | Diameter of the rot (mm) ([4]; 2 mg/L): 0.0 mm
